Laboratory results as given in article PMC10572522, “A Designed Analog of an Antimicrobial Peptide, Crabrolin, Exhibits Enhanced Anti-Proliferative and In Vivo Antimicrobial Activity” (International Journal of Molecular Sciences, 2023).
Residues, ends and D or L forms follow the SMILES beside them.

How the values were obtained:
[1] = system: P. aeruginosa (ATCC 9027); assay: Antimicrobial susceptibility assay (MIC/MBC); assay type: cell-based, Pseudomonas aeruginosa; conditions: for MIC: MHB, 37 °C, 20 h
Method: Six bacteria were tested in this experiment to detect the antimicrobial effects of crabrolin and its derivatives, including S. aureus (NCTC 10788), MRSA (NCTC 12493), E. coli (ATCC 8739), K. pneumoniae (ATCC 43816), E. faecium (NTCC-12697), and P. aeruginosa (ATCC 9027). The tested bacteria were cultured in Mueller Hinton broth medium (MHB) with norfloxacin (20 mg/L) as a positive control. All bacteria were incubated at 37 °C overnight and diluted to 5 × 10^5 CFU/mL before treating with the peptides. Stock solutions of 51,200 µM peptides were prepared in phosphate-buffered saline (PBS) and further diluted by a factor of two to 100 µM. Next, 1 µL of each peptide solution was mixed with 99 µL of bacterial subculture in a 96-well plate, and the plate was incubated at 37 °C for 20 h. After culturing, the absorbance of each well in the 96-well plate was analyzed at 550 nm using a Synergy HT plate reader (BioliseBioTek, Winooski, VT, USA). […] Starting with the MIC value, 10 µL of the solution from each well was dripped onto Mueller Hinton agar (MHA) plates. The plates were cultured at 37 °C for 20 h. After culturing, the lowest concentration with no colony growth was regarded as the MBC.

[2] = system: MRSA (NCTC 12493) biofilm; assay type: cell-based, methicillin-resistant Staphylococcus aureus; conditions: for MBIC: biofilm inhibitory rate more than 90%; for MBEC: eradication rate greater than 99.9%
Method: To measure the antibiofilm activity of crabrolin and its derivatives, four drug-resistant biofilm-forming strains, MRSA (NCTC 12493), K. pneumoniae (ATCC 43816), E. faecium (NTCC-12697), and P. aeruginosa (ATCC 9027), were used in this assay. Tryptic soy broth (TSB) (for the Gram-positive bacteria) and Luria–Bertani broth (LB) (for the Gram-negative bacteria) were used to culture the bacteria.
The mass of the biofilm in this assay was detected by the crystal violet staining method. First, 100 μL of 5 × 10^5 CFU/mL bacteria was incubated with 1 μL of different peptide solutions (ranging from 51200 μM to 100 μM) for 24 h at 37 °C with 200 rpm shaking. After the biofilm formation, 100 μL of PBS was used to rinse the biofilm twice. Next, 100 µL of methanol was added to fix the biofilm, and the biofilm was then dried. Thereafter, 100 μL of 0.1% crystal violet was added and left to stain for 15 min, and then the excess crystal violet was further rinsed by PBS. After the plate had air-dried, 30% glacial acetic acid was added to each well of the plate, and the plate was shaken for 15 min before the optical density (OD) value was measured at 595 nm using a Synergy HT plate reader. The MBIC value refers to the minimum concentration at which the biofilm inhibitory rate was more than 90%.
Different from measuring the MBIC value, to determine the MBEC value, 100 μL of the bacteria was first added to 96-well plates. After the biofilm was formed, the biofilm was rinsed with PBS twice to remove the planktonic cells, and then different concentrations of the drugs were added to the biofilm (the same as the MBIC assay). The mixture was incubated at 37 °C with shaking at 200 rpm. After 24 h of incubation, the mass of the biofilm was measured in the same way as the MBIC value, and the minimum concentration at which the eradication rate was greater than 99.9% was considered to be the MBEC value.

[3] = system: human keratinocyte cell line HaCaT; assay: LDH cell cytotoxicity assay; assay type: cell-based; conditions: for LDH leakage: 25 μM, 24 h
Method: (§1) A Pierce LDH cytotoxicity assay kit (Thermo Scientific, Waltham, MA, USA) was applied for the LDH assay. An immortalized human microvascular endothelial cell line, HMEC-1, and a human keratinocyte cell line, HaCaT, were used in the LDH assay. A total of 8000 cells were placed in each well of the 96-well tissue culture plate with 100 µL of medium and incubated at 37 °C with 5% CO2 overnight. The cells were cultured with different drug concentrations ranging from 100 µM to 1µM for 24 h. […] of lysis buffer was prepared as the maximum LDH activity control. After incubating at 37 °C with 5% CO2 for 45 min, 50 µL of the sample was transferred into each well medium in a 96-well flat-bottom plate. Then, 50 µL of the reaction mixture was transferred to the wells and mixed. The 96-well plate was cultured for 30 min and protected from light at room temperature. Then, 50 µL of stop solution (supplied in the kit) was added to each well and mixed. The absorbance was detected at 490 nm and 680 nm.

[4] = system: immortalized human microvascular endothelial cell line HMEC-1; assay: LDH cell cytotoxicity assay; assay type: cell-based
Method: as §1

[5] = Hemolysis assay; assay type: cell-based, horse; conditions: horse, erythrocytes (2% suspension); for hemolysis at 2 h: at the peptide's maximum MIC, relative to Triton X-100, read-out: Hemolysis under the Maximum MIC
Method: (§2) According to the procedures described in detail in a previous study, the debris and impurities of the erythrocytes were washed with PBS in advance to yield 2% of the erythrocyte suspension, and the drug concentration was diluted from 1024 µM to 2 µM with PBS [53]. The same amounts of the drug and the erythrocyte suspension were mixed and cultured at 37 °C for 2 h; 0.1% Triton X-100 (Sigma-Aldrich, St. Louis, MO, USA) was prepared as a positive control, and PBS was prepared as a negative control. After the incubation, the supernatant was transferred to a 96-well plate and then detected using a Synergy HT plate reader at 570 nm.

[6] = system: horse erythrocytes; assay: Hemolysis assay; assay type: cell-based; conditions: for HC10 (10% hemolytic concentration) / HC50 (50% hemolytic concentration): erythrocytes, 37 °C, 2 h
Method: as §2

SMILES	MBC [1] [µM]	MIC [1] [µM]	MBIC [2] [µM]	MBEC [2] [µM]	LDH leakage [3] [%]	Cytotoxicity (LDH release) ([3]; 100 μM)	Cytotoxicity (LDH release) ([4]; HMEC-1, 100 μM)	hemolysis at 2 h [5] [%]	Hemolytic activity ([6]; 256 µM) [%]	HC10 (10% hemolytic concentration) [6] [µM]	HC50 (50% hemolytic concentration) [6] [µM]	Cytotoxicity (LDH release) ([4]; HMEC-1, 25 μM)	hemolysis at 2 h, 100 µM ([5]; 100 μM) [%]	Hemolysis ([6]; 8 μM)
CC[C@H](C)[C@H](NC(=O)[C@H](CC(C)C)NC(=O)[C@@H]1CCCN1C(=O)[C@H](CC(C)C)NC(=O)[C@@H](N)Cc1ccccc1)C(=O)N[C@@H](CC(C)C)C(=O)N[C@@H](CCCNC(=N)N)C(=O)N[C@@H](CCCCN)C(=O)N[C@H](C(=O)N[C@H](C(=O)N[C@H](C(=O)N[C@@H](C)C(=O)N[C@@H](CC(C)C)C(N)=O)[C@@H](C)O)C(C)C)[C@@H](C)CC [Crabrolin, FLPLILRKIVTAL-NH2] (H-FLPLILRKIVTAL-NH2)	256	128	4	128	~20	showed cytotoxicity	showed cytotoxicity	53.5	100	34.575	120.654	–	–	–
CC[C@H](C)[C@H](NC(=O)[C@H](CCCNC(=N)N)NC(=O)[C@@H]1CCCN1C(=O)[C@H](CC(C)C)NC(=O)[C@@H](N)Cc1ccccc1)C(=O)N[C@@H](CC(C)C)C(=O)N[C@@H](CCCNC(=N)N)C(=O)N[C@@H](CCCCN)C(=O)N[C@H](C(=O)N[C@H](C(=O)N[C@@H](CCCNC(=N)N)C(=O)N[C@@H](C)C(=O)N[C@@H](CC(C)C)C(N)=O)C(C)C)[C@@H](C)CC [Crabrolin-TR, FLPRILRKIVRAL-NH2] (H-FLPRILRKIVRAL-NH2)	8	4	2	64	~20	–	–	3.76	–	36.041	211.927	cytotoxic	~50	neither crabrolin-TR nor crabrolin21 caused hemolysis
